Results on five molecules are retold here after patent publication US6924353B2, “Inhibitors for RNA viruses” (priority 2003, dated 2005).

One test relates to RSV. Put plainly: Infectivity inhibition by natural and synthetic RIP, RSV in HEp2. In kind it is cell-based, respiratory syncytial virus. Conditions: 10 μg/ml; for Log TCID/50: six days. The procedure: (§1) Infectivity Inhibition of RNA Viruses by Synthetic RIP: For comparison, the natural and the synthetic RIPs were tested in cell cultures infected with different RNA viruses. The cell line MA 104 was used for infecting rotavirus SA 11 strain. HEp2 cells were used for infecting RSV and PIV3 viruses. The cells were infected in serial dilutions from 10^−2 to 10^−8; three wells were used for each dilution. After absorption of the virus, the cultures were divided into three groups. Group one received medium containing PBS as a positive control, group two received medium containing 10 μg/ml of natural RIP, and for the remaining group the medium was incorporated with 10 μg/ml synthetic RIP. The tests were read after six days and TCID/50 were calculated from CPE.
The approved drug ribovirin was tested for RSV virus in HEp2 cells at 10 μg/ml concentration. […] Synthetic RIP should be more inhibitory by increasing the concentration.

The next test deals with rotavirus strain SA 11. Put plainly: Biological activity of trypsin fragments and synthetic versions, MA104 cells infected with rotavirus. The conditions noted are these: tested at 20, 10, 5, 2.5, and 1.0 μg/ml. In kind it is cell-based. As for the experimental part:
Biological Activity of Fragments: Initially, the inhibitory activity of the fragments was tested on African green monkey kidney cells MA104 infected with rotavirus strain SA 11. Dulbecco Modified Eagle's Medium (DMEM) containing 10% newborn calf serum (NBCS), L-glutamine and the antibiotics penicillin and streptomycin was used to grow MA 104 and HEp2 cells into monolayers after being monodispersed with a mixture of trypsin/EDTA. The same medium without serum, containing 1 μg/ml trypsin, designated as “special medium,” was used after infecting MA 104 cells with SA 11 virus including the controls. Initially, each fraction was tested on monolayers of MA 104 cells grown in 48 well plates and infected at 10^−2 dilution of SA 11 virus. Before infecting, MA 104 cells were washed with serum free medium. The virus was allowed to absorb for 1 hour at 37° C. in a humid CO2 incubator. After absorption, 0.9 ml of medium was added to each well. Each fraction was tested at the concentration of 20, 10, 5, 2.5, and 1.0 μg/ml. Cells infected with virus received PBS to serve as positive controls, for virus CPE. The tests were read after six days.
The sequencing and synthesis was contracted out to the Protein Core Laboratory of Baylor College of Medicine, Houston, Tex.

A further test relates to rotavirus SA 11 strain. As to the kind of experiment: Infectivity inhibition by natural and synthetic RIP, rotavirus in MA 104. It counts as cell-based. The conditions noted are these: 10 μg/ml; for Log TCID/50: six days. The procedure: as §1
Another test has as its system PIV3. Put plainly: Infectivity inhibition by natural and synthetic RIP, PIV3 in HEp2. Conditions: 10 μg/ml. In kind it is cell-based, human parainfluenza type 3. The procedure:
as §1

Entries after “also recorded” stand apart in the source; their conditions may differ. Where no end group is shown, it is not given here.

With `NC(=O)c1ncn([C@@H]2O[C@H](CO)[C@@H](O)[C@H]2O)n1` [ribovirin, reference compound], in the test on RSV, the “Log TCID/50” value came to 5.4 Log TCID/50.
With AKAGSDNTKGGVYPMFGM [SEQ ID. NO.: 2], the “antiviral activity (inhibition of rotavirus) of fragment and synthetic versions” value in the test on rotavirus strain SA 11 is given as “most active fragment”; in the test on rotavirus strain SA 11 (listed as SEQ. ID. NO.: 2) it was “effective; also recorded: good results”.
In the case of “A K A G S (AKAGS; SYNTHESIZED. CORRESPONDS TO POSITIONS 1-5 OF SEQ. ID. NO. 2) [SEQ. ID. NO.: 5, synthetic version, five amino acids]”, the “antiviral activity (inhibition of rotavirus) of fragment and synthetic versions” value with rotavirus strain SA 11 is “good results”.
In the case of AKAGSDNTKG [synthetic RIP], the “Log Inhibition of infectivity” value is 1.9 Log with rotavirus SA 11 strain, 1.7 Log with RSV and 2.0 Log with PIV3. Further, the “Log TCID/50” value with rotavirus SA 11 strain was determined as 4.5 Log TCID/50; in the test on rotavirus SA 11 strain (listed as Syn RIP), 4.3 Log TCID/50; with RSV, 5.8 Log TCID/50; in the test on RSV (listed as Syn RIP), 4.5 Log TCID/50; in the test on PIV3 (six days) it was 5.8 Log TCID/50. Also, the “antiviral activity (inhibition of rotavirus) of fragment and synthetic versions” value is “most active domain; also recorded: good results” with rotavirus strain SA 11 (listed as SEQ. ID. NO.: 4) and “the most inhibition” with rotavirus strain SA 11 (listed as SEQ. ID. No.: 4).
In the case of “A K A G S D N T K G G V Y P M (ALAGSDNTKGGVYPM; SYNTHESIZED. CORRESPONDS TO POSITIONS 1-15 OF SEQ. ID. NO. 2) [SEQ. ID. NO.: 3, synthetic version, 15 amino acids]”, the “antiviral activity (inhibition of rotavirus) of fragment and synthetic versions” value in the test on rotavirus strain SA 11 is “effective; also recorded: good results”.
